Assay results: patent US6476004B1, “Pharmaceutical composition” (Mitsubishi Pharma Corporation, priority 1996, dated 2002)

Assay: Behaviour of the aqueous solution of the present compound
Type: physicochemical
Experimental: When 2-amino-2-[2-(4-octylphenyl)ethyl]propane-1,3-diol or a pharmaceutical acceptable acid addition salt (particularly hydrochloride) is made an aqueous solution, the solution is observed foaming and shown hemolysis and local irritation at 0.01-20% by weight. When the present compound is made the aqueous solution at a higher concentration than 0.1% by weight, the present compound is dissolved by micellization. On the other hand, in the aqueous solution at a lower concentration than 0.05% by weight, the present compound is dissolved as a solution without micellization. […] The present invention characterizes that, by adding a cyclodextrin to the said aqueous solution, the problems such as foaming, hemolysis and local irritation, as well as prevention of crystalline deposits based on micellization, are settled at the same time.

## CCCCCCCCc1ccc(CCC(N)(CO)CO)cc1.Cl [present compound, 2-amino-2-[2-(4-octylphenyl)ethyl]propane-1,3-diol hydrochloride]
  concentration of aqueous solution at which crystalline deposits are found: 0.05-0.1 % by weight
  concentration of aqueous solution at which foaming, hemolysis and local irritation are shown: 0.01-20 % by weight
  concentration of aqueous solution at which the compound is dissolved by micellization: > 0.1 % by weight
  concentration of aqueous solution at which the compound is dissolved without micellization: < 0.05 % by weight
